Numbers after ± are expanded uncertainties.
Assays:
[1] = refractive index (Na D-line) (dimensionless); conditions: 100 kPa, Standard Abbe refractometry
[2] = 100 kPa; for viscosity: Falling or rolling sphere viscometry; for mass density: Vibrating tube method
[3] = xn = mol fraction of the nth substance listed; conditions: 100 kPa, Liquid, x1 = 1; for mass density: Vibrating tube method; for viscosity: Falling or rolling sphere viscometry
[4] = refractive index (Na D-line) (dimensionless); xn = mol fraction of the nth substance listed; conditions: 100 kPa, Liquid, Standard Abbe refractometry, x1 = 1

| SMILES | refractive index ([1]; 288.15 K, Liquid) | refractive index ([1]; 293.15 K, Liquid) | refractive index ([1]; 298.15 K, Liquid) | refractive index ([1]; 303.15 K, Liquid) | refractive index ([1]; 308.15 K, Liquid) | refractive index ([1]; 313.15 K, Liquid) | refractive index ([1]; 318.15 K, Liquid) | viscosity ([2]; 293.15 K, Liquid) | mass density ([2]; 293.15 K, Liquid) | viscosity ([2]; 298.15 K, Liquid) | viscosity ([2]; 303.15 K, Liquid) | mass density ([3]; 288.15 K) | viscosity ([3]; 293.15 K) | mass density ([3]; 293.15 K) | viscosity ([3]; 298.15 K) | viscosity ([3]; 303.15 K) | mass density ([3]; 318.15 K) | refractive index ([4]; 288.15 K) | refractive index ([4]; 293.15 K) | refractive index ([4]; 298.15 K) | other results |
| --- | --- | --- | --- | --- | --- | --- | --- | --- | --- | --- | --- | --- | --- | --- | --- | --- | --- | --- | --- | --- | --- |
| OCCO [1,2-ethanediol] | 1.432 ± 0.029 | 1.4306 ± 0.029 | 1.4294 ± 0.029 | 1.4282 ± 0.029 | 1.4269 ± 0.029 | 1.4257 ± 0.029 | 1.4244 ± 0.029 | 21.13 ± 3.4 mPa·s | 1113.3 ± 4.5 kg/m3 | 17.24 ± 2.8 mPa·s | 14.23 ± 2.3 mPa·s | – | – | – | – | – | – | – | – | – | mass density ([2]; 303.15 K, Liquid): 1106.8 ± 4.4 kg/m3; mass density ([2]; 313.15 K, Liquid): 1099.1 ± 4.4 kg/m3 |
| OCCCCO [1,4-butanediol] | – | – | – | – | – | – | – | – | – | – | – | – | – | – | – | – | – | – | – | – | refractive index ([1]; 288.15 K, Metastable liquid): 1.447 ± 0.029; refractive index ([1]; 293.15 K, Metastable liquid): 1.4455 ± 0.029; refractive index ([1]; 298.15 K, Metastable liquid): 1.4441 ± 0.029; refractive index ([1]; 303.15 K, Metastable liquid): 1.4426 ± 0.029; refractive index ([1]; 308.15 K, Metastable liquid): 1.4412 ± 0.029; refractive index ([1]; 313.15 K, Metastable liquid): 1.4398 ± 0.029; refractive index ([1]; 318.15 K, Metastable liquid): 1.4384 ± 0.029; mass density ([2]; 288.15 K, Metastable liquid): 1018.6 ± 4.1 kg/m3; viscosity ([2]; 293.15 K, Metastable liquid): 90.7 ± 15 mPa·s; mass density ([2]; 293.15 K, Metastable liquid): 1016.3 ± 4.1 kg/m3; viscosity ([2]; 298.15 K, Metastable liquid): 69.89 ± 11 mPa·s; mass density ([2]; 298.15 K, Metastable liquid): 1012.9 ± 4.1 kg/m3; viscosity ([2]; 303.15 K, Metastable liquid): 55.24 ± 8.8 mPa·s; mass density ([2]; 303.15 K, Metastable liquid): 1009.9 ± 4 kg/m3; mass density ([2]; 308.15 K, Metastable liquid): 1006.9 ± 4 kg/m3; mass density ([2]; 313.15 K, Metastable liquid): 1003.2 ± 4 kg/m3; mass density ([2]; 318.15 K, Metastable liquid): 1000.8 ± 4 kg/m3 |
| OCCCCCO [1,5-pentanediol] | 1.4503 ± 0.029 | 1.449 ± 0.029 | 1.4478 ± 0.029 | 1.4466 ± 0.029 | 1.4454 ± 0.029 | 1.4441 ± 0.029 | 1.443 ± 0.029 | 118.7 ± 19 mPa·s | 989.2 ± 4 kg/m3 | 86.79 ± 14 mPa·s | 68.3 ± 11 mPa·s | – | – | – | – | – | – | – | – | – | mass density ([2]; 288.15 K, Liquid): 992.2 ± 4 kg/m3; mass density ([2]; 298.15 K, Liquid): 986.2 ± 4 kg/m3; mass density ([2]; 303.15 K, Liquid): 983.2 ± 4 kg/m3; mass density ([2]; 308.15 K, Liquid): 980.3 ± 4 kg/m3; mass density ([2]; 313.15 K, Liquid): 977.4 ± 4 kg/m3; mass density ([2]; 318.15 K, Liquid): 974.8 ± 4 kg/m3 |
| OCCCO [propan-1,3-diol] | 1.4407 ± 0.029 | 1.4393 ± 0.029 | 1.438 ± 0.029 | 1.4367 ± 0.029 | 1.4353 ± 0.029 | 1.434 ± 0.029 | 1.4327 ± 0.029 | 51.55 ± 8.3 mPa·s | 1053.2 ± 4.3 kg/m3 | 40.8 ± 6.5 mPa·s | 32.74 ± 5.3 mPa·s | – | – | – | – | – | – | – | – | – | mass density ([2]; 288.15 K, Liquid): 1056.2 ± 4.3 kg/m3; mass density ([2]; 298.15 K, Liquid): 1049.9 ± 4.3 kg/m3; mass density ([2]; 303.15 K, Liquid): 1046.7 ± 4.3 kg/m3; mass density ([2]; 308.15 K, Liquid): 1043.5 ± 4.3 kg/m3; mass density ([2]; 313.15 K, Liquid): 1040.4 ± 4.2 kg/m3; mass density ([2]; 318.15 K, Liquid): 1037.9 ± 4.2 kg/m3 |
| O [water] | 1.3338 ± 0.027 | 1.3331 ± 0.027 | 1.3325 ± 0.027 | 1.3318 ± 0.027 | 1.3312 ± 0.027 | 1.3305 ± 0.027 | 1.3299 ± 0.027 | 0.949 ± 0.15 mPa·s | 998.3 ± 4 kg/m3 | 0.843 ± 0.14 mPa·s | 0.755 ± 0.12 mPa·s | – | – | – | – | – | – | – | – | – | mass density ([2]; 288.15 K, Liquid): 999.2 ± 4 kg/m3; mass density ([2]; 318.15 K, Liquid): 990.8 ± 4 kg/m3 |
| O [water] + OCCCCCO | – | – | – | – | – | – | – | – | – | – | – | 999.2 ± 4 kg/m3 | 0.949 ± 0.15 mPa·s | 998.3 ± 4 kg/m3 | 0.843 ± 0.14 mPa·s | 0.755 ± 0.12 mPa·s | 990.8 ± 4 kg/m3 | 1.3338 ± 0.027 | 1.3331 ± 0.027 | 1.3325 ± 0.027 | refractive index ([4]; 303.15 K): 1.3318 ± 0.027; refractive index ([4]; 308.15 K): 1.3312 ± 0.027; refractive index ([4]; 313.15 K): 1.3305 ± 0.027; refractive index ([4]; 318.15 K): 1.3299 ± 0.027 |
| O [water] + OCCCCO | – | – | – | – | – | – | – | – | – | – | – | 999.2 ± 4 kg/m3 | 0.949 ± 0.15 mPa·s | 998.3 ± 4 kg/m3 | 0.843 ± 0.14 mPa·s | 0.755 ± 0.12 mPa·s | 990.8 ± 4 kg/m3 | 1.3338 ± 0.027 | 1.3331 ± 0.027 | 1.3325 ± 0.027 | refractive index ([4]; 303.15 K): 1.3318 ± 0.027; refractive index ([4]; 308.15 K): 1.3312 ± 0.027; refractive index ([4]; 313.15 K): 1.3305 ± 0.027; refractive index ([4]; 318.15 K): 1.3299 ± 0.027 |
| O [water] + OCCCO | – | – | – | – | – | – | – | – | – | – | – | 999.2 ± 4 kg/m3 | 0.949 ± 0.15 mPa·s | 998.3 ± 4 kg/m3 | 0.843 ± 0.14 mPa·s | 0.755 ± 0.12 mPa·s | 990.8 ± 4 kg/m3 | 1.3338 ± 0.027 | 1.3331 ± 0.027 | 1.3325 ± 0.027 | refractive index ([4]; 303.15 K): 1.3318 ± 0.027; refractive index ([4]; 308.15 K): 1.3312 ± 0.027; refractive index ([4]; 313.15 K): 1.3305 ± 0.027; refractive index ([4]; 318.15 K): 1.3299 ± 0.027 |
| O [water] + OCCO | – | – | – | – | – | – | – | – | – | – | – | 999.2 ± 4 kg/m3 | 0.949 ± 0.15 mPa·s | 998.3 ± 4 kg/m3 | 0.843 ± 0.14 mPa·s | 0.755 ± 0.12 mPa·s | 990.8 ± 4 kg/m3 | 1.3338 ± 0.027 | 1.3331 ± 0.027 | 1.3325 ± 0.027 | refractive index ([4]; 303.15 K): 1.3318 ± 0.027; refractive index ([4]; 308.15 K): 1.3312 ± 0.027; refractive index ([4]; 313.15 K): 1.3305 ± 0.027; refractive index ([4]; 318.15 K): 1.3299 ± 0.027 |

— the NIST ThermoML archive (doi:10.1021/acs.jced.6b00526)
